# Assay results from ChEMBL document CHEMBL1806490, “Benzisothiazolones as modulators of macrophage migration inhibitory factor” (Bioorg Med Chem Lett, 2011).
# Key:
# [1] = molecular target: T1, Macrophage migration inhibitory factor (Homo sapiens, UniProt P14174); assay: Inhibition of human recombinant MIF tautomerase activity using 4-hydroxyphenylpyruvate as substrate
# T1 sequence (P14174 whole entry): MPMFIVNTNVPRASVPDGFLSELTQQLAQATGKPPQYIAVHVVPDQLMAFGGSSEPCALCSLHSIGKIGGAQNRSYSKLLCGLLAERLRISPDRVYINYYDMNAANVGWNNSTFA
# [2] = molecular target: T2, MIF/CD74 (Macrophage migration inhibitory factor and HLA-DR antigens-associated invariant chain) (Homo sapiens) (UniProt P14174+P04233); details: 78 nM
# Description: Inhibition of human recombinant biotinylated MIF/CD74 ectodomain interaction at 78 nM by streptavidin alkaline phosphatase reporter system
# [3] = molecular target: T2, MIF/CD74 (Macrophage migration inhibitory factor and HLA-DR antigens-associated invariant chain) (Homo sapiens); details: 4 nM
# Description: Inhibition of human recombinant biotinylated MIF/CD74 ectodomain interaction at 4 nM by streptavidin alkaline phosphatase reporter system
SMILES,IC50 [1] [µM],also measured
COc1cccc(-n2sc3ccc(F)cc3c2=O)c1,2.8,
COCc1cccc(-n2sc3cc(F)ccc3c2=O)c1,2.4,
N#Cc1ccc(-n2sc3cc(F)ccc3c2=O)cc1,,inhibition [2]: 49%
O=c1c2ccc(Br)cc2sn1-c1ccc(Cl)cc1,11,
O=c1c2cc(Br)ccc2sn1-c1ccc(Cl)cc1,7.9,
O=c1c2ccc(F)cc2sn1-c1cccc(Cl)c1,5,
N#Cc1ccc2c(=O)n(-c3ccc(Cl)cc3)sc2c1,3.1,
COc1ccc(-n2sc3ccc(F)cc3c2=O)cc1,6.5,
CC(=O)OCc1cccc(-n2sc3cc(F)ccc3c2=O)c1,2.3,
O=c1c2cccc(F)c2sn1-c1ccc(Cl)cc1,2.8,
COc1cccc(-n2sc3cc(F)ccc3c2=O)c1,25,
O=c1c2cc(F)ccc2sn1-c1ccc(Cl)cc1,5.6,
COc1cccc(-n2sc3c(F)cccc3c2=O)c1,8,
O=c1c2cc(F)c(F)cc2sn1-c1ccc(Cl)cc1,4.9,
N#Cc1ccc2sn(-c3ccc(Cl)cc3)c(=O)c2c1,19,
O=c1c2ccc(F)c(F)c2sn1-c1ccc(Cl)cc1,5.6,
O=c1c2ccc(O)cc2sn1-c1ccc(Cl)cc1,,inhibition [3]: 23%
O=c1c2cccc(Cl)c2sn1-c1ccc(Cl)cc1,6.6,
O=c1c2cc([N+](=O)[O-])ccc2sn1-c1ccc(Cl)cc1,6.2,
O=c1c2cccc(F)c2sn1-c1cccc(O)c1,5.9,
